These compounds were tested against T1, human TLR8 (Homo sapiens, UniProt Q9NR97) (assay: HEK293-Blue-hTLR-8 cells assay). Settings: HEK293-Blue-hTLR8 cells, SEAP reporter, R848 stimulation, 20 hrs.
T1 sequence (Q9NR97 27-1041): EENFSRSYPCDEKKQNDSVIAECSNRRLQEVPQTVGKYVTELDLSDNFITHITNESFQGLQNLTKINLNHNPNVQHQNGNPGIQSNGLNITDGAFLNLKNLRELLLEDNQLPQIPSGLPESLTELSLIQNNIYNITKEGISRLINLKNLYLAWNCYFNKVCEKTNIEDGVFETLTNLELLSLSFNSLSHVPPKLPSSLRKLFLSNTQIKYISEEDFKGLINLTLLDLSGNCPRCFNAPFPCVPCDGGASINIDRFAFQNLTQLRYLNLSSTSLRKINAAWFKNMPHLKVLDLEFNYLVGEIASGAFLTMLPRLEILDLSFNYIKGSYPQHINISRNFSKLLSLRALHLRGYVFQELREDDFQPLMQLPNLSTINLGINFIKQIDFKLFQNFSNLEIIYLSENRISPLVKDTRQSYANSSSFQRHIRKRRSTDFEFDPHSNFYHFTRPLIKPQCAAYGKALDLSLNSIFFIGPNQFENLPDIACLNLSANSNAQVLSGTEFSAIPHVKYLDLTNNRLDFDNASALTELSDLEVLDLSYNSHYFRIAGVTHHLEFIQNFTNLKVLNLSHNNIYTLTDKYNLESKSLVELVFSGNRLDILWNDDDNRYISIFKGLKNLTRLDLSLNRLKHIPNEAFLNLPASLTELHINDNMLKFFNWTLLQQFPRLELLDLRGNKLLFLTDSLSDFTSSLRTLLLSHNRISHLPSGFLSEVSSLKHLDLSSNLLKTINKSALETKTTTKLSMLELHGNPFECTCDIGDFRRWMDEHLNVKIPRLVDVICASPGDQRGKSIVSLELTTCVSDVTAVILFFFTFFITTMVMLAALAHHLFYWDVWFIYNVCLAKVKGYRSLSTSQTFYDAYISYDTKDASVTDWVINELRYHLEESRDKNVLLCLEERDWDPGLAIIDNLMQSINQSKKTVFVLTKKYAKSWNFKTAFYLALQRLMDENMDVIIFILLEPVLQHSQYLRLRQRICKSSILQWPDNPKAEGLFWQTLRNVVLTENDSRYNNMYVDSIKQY
Format: cell-based
Excerpt: HEK293-Blue-hTLR-8 Cells Assay:
A stable HEK293-Blue-hTLR-8 cell line was purchased from InvivoGen (Cat. #: hkb-htlr8, San Diego, Calif., USA). These cells were originally designed for studying the stimulation of human TLR8 by monitoring the activation of NF-κB. A SEAP (secreted embryonic alkaline phosphatase) reporter gene was placed under the control of the IFN-β minimal promoter fused to five NF-κB and AP-1-binding sites. The SEAP was induced by activating NF-κB and AP-1 via stimulating HEK-Blue hTLR8 cells with TLR8 ligands. Therefore the reporter expression was declined by TLR8 antagonist under the stimulation of a ligand, such as R848, for incubation of 20 hrs. The cell culture supernatant SEAP reporter activity was determined using QUANTI-Blue™ kit (Cat. #: rep-qb1, Invivogen, San Diego, Ca, USA) at a wavelength of 640 nm, a detection medium that turns purple or blue in the presence of alkaline phosphatase.
HEK293-Blue-hTLR8 cells were incubated at a density of 250,000-450,000 cells/mL in a volume of 170 μL in a 96-well plate in Dulbecco's Modified Eagle's medium (DMEM) containing 4.5 g/L glucose, 50 U/mL penicillin, […], […], 2 mM L-glutamine, 10% (v/v) heat-inactivated fetal bovine serum with addition of 20 μL test compound in a serial dilution in the presence of final DMSO at 1% and 10 sL of 60 uM R848 in above DMEM, perform incubation under 37° C. in a CO2 incubator for 20 hrs. Then 20 μL of the supernatant from each well was incubated with 180 sL Quanti-blue substrate solution at 37° C. for 2 hrs and the absorbance was read at 620˜655 nm using a spectrophotometer. The signalling pathway that TLR8 activation leads to downstream NF-κB activation has been widely accepted, and therefore similar reporter assay was modified for evaluating TLR8 antagonist.
For `CN1CCC(NC(=O)[C@@H]2CN(c3ccc(C#N)c4ncccc34)C[C@H]2C2CC2)CC1` (relative stereo) [Example 14, Trans-1-(8-cyano-5-quinolyl)-4-cyclopropyl-N-(1-methyl-4-piperidyl)pyrrolidine-3-carboxamide], the IC50 was 193 nM. `CN1CCC(NC(=O)[C@@H]2CN(c3ccc(C#N)c4ncccc34)C[C@H]2C(F)(F)F)CC1` (relative stereo) [Example 17, Trans-1-(8-cyano-5-quinolyl)-N-(1-methyl-4-piperidyl)-4-(trifluoromethyl)pyrrolidine-3-carboxamide] gave an IC50 of 66 nM. In the case of `C[C@@H]1CN(c2ccc(C#N)c3ncccc23)C[C@H]1C(=O)NC1CCN(C)CC1` (relative stereo) [Example 28], the IC50 is reported as 52 nM. `CC[C@@H]1CN(c2ccc(C#N)c3ncccc23)C[C@H]1C(=O)NC1CCN(C)CC1` (relative stereo) [Example 29, Trans-1-(8-cyano-5-quinolyl)-4-ethyl-N-(1-methyl-4-piperidyl)pyrrolidine-3-carboxamide] was tested, and the IC50 was 96 nM. In the case of `C[C@@H]1CN(c2ccc(C#N)c3ncccc23)C[C@H]1C(=O)N1CCC2(CCNCC2)CC1` (relative stereo) [Example 32, Trans-5-[3-(3,9-diazaspiro[5.5]undecane-3-carbonyl)-4-methyl-pyrrolidin-1-yl]quinoline-8-carbonitrile], the IC50 is reported as 213 nM. `CC(C)[C@@H]1CN(c2ccc(C#N)c3ncccc23)C[C@H]1C(=O)NC1CCN(C)CC1` (relative stereo) [Example 37, Trans-1-(8-cyano-5-quinolyl)-4-isopropyl-N-(1-methyl-4-piperidyl)pyrrolidine-3-carboxamide] gave an IC50 of 489 nM. In the case of `CN1CCC(NC(=O)[C@@H]2CN(c3ccc(C#N)c4ncccc34)C[C@H]2C(F)F)CC1` (relative stereo) [Example 40, Trans-1-(8-cyano-5-quinolyl)-4-(difluoromethyl)-N-(1-methyl-4-piperidyl)pyrrolidine-3-carboxamide], the IC50 is reported as 134 nM. Work on `N[C@@H]1CCC[C@H](NC(=O)C2CN(c3ccc(C(F)(F)F)c4nccnc34)CC23CC3)C1` (relative stereo) [Example 43, Cis-N-(3-aminocyclohexyl)-5-[8-(trifluoromethyl)quinoxalin-5-yl]-5-azaspiro[2.4]heptane-7-carboxamide] yielded an IC50 of 124 nM. `CN1CCC(NC(=O)[C@@H]2CN(c3ccc(Cl)c4ncccc34)C[C@H]2C(F)(F)F)CC1` (relative stereo) [Example 46, Trans-1-(8-chloro-5-quinolyl)-N-(1-methyl-4-piperidyl)-4-(trifluoromethyl)pyrrolidine-3-carboxamide] gave an IC50 of 51 nM. `C[C@@H]1CN(c2ccc(C#N)c3ncccc23)C[C@H]1C(=O)N1CCC2(CCNC2)C1` (relative stereo) [Example 53, Trans-5-[3-(2,7-diazaspiro[4.4]nonane-2-carbonyl)-4-methyl-pyrrolidin-1-yl]quinoline-8-carbonitrile] was tested, and the IC50 was 225 nM. Work on `CN1CCC(NC(=O)C2CN(c3ccc(C#N)c4nccnc34)CC23CC3)CC1` (single isomer, unassigned) [Example 7A, 5-(8-Cyanoquinoxalin-5-yl)-N-(1-methyl-4-piperidyl)-5-azaspiro[2.4]heptane-7-carboxamide] yielded an IC50 of 7 nM. `CN1CCC(NC(=O)C2CN(c3ccc(C#N)c4nccnc34)CC23CC3)CC1` (single isomer, unassigned) [Example 7B, 5-(8-Cyanoquinoxalin-5-yl)-N-(1-methyl-4-piperidyl)-5-azaspiro[2.4]heptane-7-carboxamide] was tested, and the IC50 was 26 nM. `N#Cc1ccc(N2CC(C(=O)NC3CCCNCC3)C(C(F)(F)F)C2)c2cccnc12` (single isomer, unassigned) [Example 30A, N-(azepan-4-yl)-1-(8-cyano-5-quinolyl)-4-(trifluoromethyl)pyrrolidine-3-carboxamide] showed an IC50 of 67 nM. For `N#Cc1ccc(N2CC(C(=O)NC3CCCNCC3)C(C(F)(F)F)C2)c2cccnc12` (single isomer, unassigned) [Example 30B, N-(azepan-4-yl)-1-(8-cyano-5-quinolyl)-4-(trifluoromethyl)pyrrolidine-3-carboxamide], the IC50 was 173 nM. `CN1CCC(NC(=O)C2CN(c3ccc(C#N)c4ncccc34)CC23CC3)CC1` (single isomer, unassigned) [Example 41A, 5-(8-Cyano-5-quinolyl)-N-(1-methyl-4-piperidyl)-5-azaspiro[2.4]heptane-7-carboxamide] was tested, and the IC50 was 191 nM. In the case of `C[C@@H]1CN(c2ccc(C#N)c3ncccc23)C[C@H]1C(=O)NC1CCCNCC1` (single isomer, unassigned) [Example 52A, Trans-N-(azepan-4-yl)-1-(8-cyano-5-quinolyl)-4-methyl-pyrrolidine-3-carboxamide], the IC50 is reported as 225 nM. `C[C@@H]1CN(c2ccc(C#N)c3ncccc23)C[C@H]1C(=O)NC1CCCNCC1` (single isomer, unassigned) [Example 52B, Trans-N-(azepan-4-yl)-1-(8-cyano-5-quinolyl)-4-methyl-pyrrolidine-3-carboxamide] showed an IC50 of 274 nM. Compound `N#Cc1ccc(N2CC(C(=O)NC[C@H]3CNCCO3)C3(CC3)C2)c2nccnc12` (single isomer, unassigned) [Example 70A] has an IC50 of 34 nM. Work on `N#Cc1ccc(N2CC(C(=O)NC[C@H]3CNCCO3)C3(CC3)C2)c2nccnc12` (single isomer, unassigned) [Example 70B] yielded an IC50 of 168 nM. With `N#Cc1ccc(N2CC(C(=O)NC[C@@H]3CNCCO3)C3(CC3)C2)c2nccnc12` (single isomer, unassigned) [Example 71A] the IC50 was 75 nM. For `N#Cc1ccc(N2CC(C(=O)NC[C@@H]3CNCCO3)C3(CC3)C2)c2nccnc12` (single isomer, unassigned) [Example 71B], the IC50 was 134 nM. `CN1CCC(NC(=O)[C@H]2CN(c3ccc(C#N)c4nccnc34)C[C@@H]2C(F)(F)F)CC1` [Example 1, (3R,4R)-1-(8-cyanoquinoxalin-5-yl)-N-(1-methyl-4-piperidyl)-4-(trifluoromethyl) pyrrolidine-3-carboxamide] gave an IC50 of 13 nM. For `CN1CCC(NC(=O)[C@H]2CN(c3ccc(C(F)(F)F)c4nccnc34)C[C@@H]2C(F)(F)F)CC1` [Example 2, (3R,4R)—N-(1-methyl-4-piperidyl)-4-(trifluoromethyl)-1-[8-(trifluoromethyl)quinoxalin-5-yl]pyrrolidine-3-carboxamide], the IC50 was 18 nM. Compound `C[C@H]1CN(c2ccc(C#N)c3nccnc23)C[C@@H]1C(=O)NC1CCN(C)CC1` [Example 3, (3R,4R)-1-(8-cyanoquinoxalin-5-yl)-4-methyl-N-(1-methyl-4-piperidyl)pyrrolidine-3-carboxamide] has an IC50 of 5 nM. `CN1CCC(NC(=O)[C@H]2CN(c3ccc(C#N)c4ncccc34)C[C@@H]2C(F)(F)F)CC1` [Example 4, (3R,4R)-1-(8-cyano-5-quinolyl)-N-(1-methyl-4-piperidyl)-4-(trifluoromethyl)pyrrolidine-3-carboxamide] gave an IC50 of 25 nM. Work on `C[C@H]1CN(c2ccc(C(F)(F)F)c3nccnc23)C[C@@H]1C(=O)NC1CCN(C)CC1` [Example 5, (3R,4R)-4-methyl-N-(1-methyl-4-piperidyl)-1-[8-(trifluoromethyl)quinoxalin-5-yl]pyrrolidine-3-carboxamide] yielded an IC50 of 11 nM.

— US20210323977A1, “PYRROLIDINYL AMIDE COMPOUNDS FOR THE TREATMENT OF AUTOIMMUNE DISEASE” (Hoffmann-La Roche Inc., priority 2018, published 2021)
